Here are results for 3 compounds from patent publication EP1487840B1 (Pfizer Italia S.r.l., priority 2002, dated 2003).

The nature of one series: physchem. The note with it: thermodynamic from solid, room temperature; for solubility thermodynamic at 24 h: Irinotecan hydrocholoride concentration; for solubility: no time given.
The conditions of series [1]: pH 1.2.
Experimental: (§1) The pH is adjusted to the final value with NaOH 1N). An excess solid was put in glass flasks in the presence of the appropriate dissolution media and the suspensions were shaken at room temperature for 24 hours. Samples were withdrawn after 15, 30, 45, 60 min and 24 hours, filtered and analyzed by means of HPLC assay.
For series [2] the following is noted: relative to CPT-11; cited from earlier work.

The structures appear in SMILES notation. Structures can show the parent of a compound that is named as a salt.

Experimental for physchem: as §1

`CCc1c2c(nc3ccc(OC(=O)N4CCC(N5CCCCC5)CC4)cc13)-c1cc3c(c(=O)n1C2)COC(=O)[C@]3(O)CC` [Form b, (S) -4,11-Diethyl-3,4,12,14-tetrahydro-4-hydroxy-3,14-dioxo-1 H-pyrano[3',4':6,7]-indolizino[1,2-b]quinolin-9-yl[1,4'-bipiperidine]-1'-carboxylate hydrochloride]: the solubility (thermodynamic) (as a rule, solubility found after equilibrating the solid with the medium) at 24 h is 11200 µg/mL in the series “physchem” (deionized water, water, a = deionized water) and 260 µg/mL in “physchem” (pH 1.2 buffer, pH 1.2, simulated gastric fluid, b = pH 1.2 buffer). For the same compound, the solubility – broadly, how much of the substance goes into solution per volume – in the series “physchem” (deionized water, water, Water solubility, in water) is around 10000 µg/mL; in “physchem” (lactic acid buffer of CAMPTOSAR INJECTION, pH 3.5, aqueous buffer, solubility), 10000 µg/mL. In the series “physchem” (pH 3.5, aqueous buffer, equilibrium solubility, pH value of about 3.5), the solubility (thermodynamic) is below 20000 µg/mL.
As to `CCc1c2c(nc3ccc(OC(=O)N4CCC(N5CCCCC5)CC4)cc13)-c1cc3c(c(=O)n1C2)COC(=O)[C@]3(O)CC` [Form c, (S)-4,11-Diethyl-3,4,12,14-tetrahydro-4-hydroxy-3,14=dioxo-1 H-pyrano[3',4':6,7]-indolizino[1,2-b]quinolin-9-yl [1,4'-bipiperidine]-1'-carboxylate (irinotecan) hydrochloride], in series [1], the “more soluble with respect to Form b” value was 2 orders of magnitude.
For `CCc1c2c(nc3ccc(O)cc13)-c1cc3c(c(=O)n1C2)COC(=O)[C@]3(O)CC` [SN-38, 7-ethyl-10-hydroxy 20 (S) camptothecin], the “more cytotoxic than CPT-11” value in series [2] is reported as 100 fold.
